Measured values reported in patent US7030150B2, “Benzimidazole compounds and antiviral uses thereof” (Trimeris, Inc., priority 2001, dated 2006).

Tested on: uninfected Hep2 cells

| SMILES | CC50 [µM] |
| --- | --- |
| ClCc1nc2ccccc2n1Cc1nc2ccccc2[nH]1 [compound 1] | 50 |
| Cc1nc(Cn2c(CN(C(C)C)C3CCCCC3)nc3ccccc32)cs1 [compound 2] | 50 |
| COc1cc(Cn2c(CN(C(C)C)C3CCCCC3)nc3ccccc32)cc(OC)c1 [compound 3] | 50 |
| CC(C)N(Cc1nc2ccccc2n1Cc1c2ccccc2nc2ccccc12)C1CCCCC1 [compound 10] | ≥ 100 |
| COC(=O)c1ccc2nc(CN3CCOCC3)n(Cc3nc4ccccc4[nH]3)c2c1 [compound 11] | 26 |
| CC(C)N(Cc1nc2ccccc2n1Cc1cccc(Oc2ccccc2)c1)C1CCCCC1 [compound 12] | ≥ 100 |
| CC(C)N(Cc1nc2ccccc2n1Cc1ccc(S(C)(=O)=O)cc1)C1CCCCC1 [compound 13] | ≥ 100 |
| CSc1ccc(Cn2c(CN(C(C)C)C3CCCCC3)nc3ccccc32)cc1 [compound 14] | 30 |
| CCCN(Cc1nc2ccccc2n1Cc1ccc2ccccc2n1)CC1CC1 [compound 20] | 50 |
| CCCN(Cc1nc2ccccc2n1Cc1csc(C)n1)CC1CC1 [compound 21] | 50 |
| CCCN(Cc1nc2ccccc2n1Cc1c2ccccc2nc2ccccc12)CC1CC1 [compound 23] | ≥ 101 |
| CCCN(Cc1nc2ccccc2n1Cc1cc(F)cc2c1OCOC2)CC1CC1 [compound 24] | 82 |
| CCCN(Cc1nc2ccccc2n1Cc1cccc(Oc2ccccc2)c1)CC1CC1 [compound 25] | ≥ 101 |
| CCCN(Cc1nc2ccccc2n1Cc1ccc(S(C)(=O)=O)cc1)CC1CC1 [compound 26] | 97 |
| Cc1nc(Cn2c(CN(Cc3ccccc3)C(C)C)nc3ccccc32)cs1 [compound 40] | 50 |
| c1ccc2nc(Cn3c(CN4CCCCC4)nc4ccccc43)ccc2c1 [compound 50] | 50 |
| Cc1nc(Cn2c(CN3CCCCC3)nc3ccccc32)cs1 [compound 51] | 50 |
| O=[N+]([O-])c1ccc(Cn2c(CN3CCCCC3)nc3ccccc32)o1 [compound 54] | 97 |
| Fc1cc2c(c(Cn3c(CN4CCCCC4)nc4ccccc43)c1)OCOC2 [compound 59] | ≥ 100 |
| CS(=O)(=O)c1ccc(Cn2c(CN3CCCCC3)nc3ccccc32)cc1 [compound 60] | ≥ 100 |
| CSc1ccc(Cn2c(CN3CCCCC3)nc3ccccc32)cc1 [compound 61] | 20 |
| FC(F)(F)Oc1ccccc1Cn1c(CN2CCCCC2)nc2ccccc21 [compound 62] | 34 |
| c1ccc2c(Cn3c(CN4CCCCC4)nc4ccccc43)c3ccccc3nc2c1 [compound 72] | ≥ 100 |

| SMILES | CC50 [µM] |
| --- | --- |
| Fc1cc2c(c(Cn3c(CN4CCCCC4)nc4ccccc43)c1)OCOC2 [compound 73] | 101 |
| c1ccc(Oc2cccc(Cn3c(CN4CCCCC4)nc4ccccc43)c2)cc1 [compound 74] | 10 |
| FC(F)(F)Oc1ccccc1Cn1c(CN2CCCCC2)nc2ccccc21 [compound 75] | 24 |
| CSc1ccc(Cn2c(CN3CCCCC3)nc3ccccc32)cc1 [compound 76] | 11 |
| O=[N+]([O-])c1ccc(Cn2c(CN3CCCCC3)nc3ccccc32)o1 [compound 77] | ≥ 100 |
| c1ccc2[nH]c(Cn3c(CN4CCCCC4)nc4ccccc43)nc2c1 [compound 79] | ≥ 100 |
| CN1CCC(N(C)Cc2nc3ccccc3n2Cc2nc3ccccc3[nH]2)CC1 [compound 80] | 58 |
| CCN(Cc1nc2ccccc2n1Cc1nc2ccccc2[nH]1)C(C)C [compound 81] | 63 |
| CC(C)N(C)Cc1nc2ccccc2n1Cc1nc2ccccc2[nH]1 [compound 82] | 25 |
| C=CCN(C)Cc1nc2ccccc2n1Cc1nc2ccccc2[nH]1 [compound 83] | 58 |
| CN(C)CCN(C)Cc1nc2ccccc2n1Cc1nc2ccccc2[nH]1 [compound 84] | ≥ 100 |
| CN(Cc1ccco1)Cc1nc2ccccc2n1Cc1nc2ccccc2[nH]1 [compound 85] | ≥ 100 |
| CC(C)CCN(CCC(C)C)Cc1nc2ccccc2n1Cc1nc2ccccc2[nH]1 [compound 87] | ≥ 100 |
| CCCCCCN(C)Cc1nc2ccccc2n1Cc1nc2ccccc2[nH]1 [compound 88] | ≥ 100 |
| C=C(C)CN(CC)Cc1nc2ccccc2n1Cc1nc2ccccc2[nH]1 [compound 89] | ≥ 100 |
| C#CCN(C)Cc1nc2ccccc2n1Cc1nc2ccccc2[nH]1 [compound 90] | ≥ 100 |
| CCCCCN(C)Cc1nc2ccccc2n1Cc1nc2ccccc2[nH]1 [compound 91] | 80 |
| CCCCN(CC)Cc1nc2ccccc2n1Cc1nc2ccccc2[nH]1 [compound 92] | 68 |
| C#CCCN(C)Cc1nc2ccccc2n1Cc1nc2ccccc2[nH]1 [compound 94] | 16 |
| COC(=O)CN(C)Cc1nc2ccccc2n1Cc1nc2ccccc2[nH]1 [compound 95] | ≥ 100 |
| CCN(CCO)Cc1nc2ccccc2n1Cc1nc2ccccc2[nH]1 [compound 96] | ≥ 100 |
| CN(Cc1nc2ccccc2n1Cc1nc2ccccc2[nH]1)CC(O)c1ccc(O)cc1 (stereo not shown) [compound 97] | 77 |
| CN(CCc1ccccn1)Cc1nc2ccccc2n1Cc1nc2ccccc2[nH]1 [compound 98] | ≥ 100 |

| SMILES | CC50 [µM] |
| --- | --- |
| CCN(Cc1ccncc1)Cc1nc2ccccc2n1Cc1nc2ccccc2[nH]1 [compound 99] | ≥ 100 |
| CCCCN(CCCC)CCCNCc1nc2ccccc2n1Cc1nc2ccccc2[nH]1 [compound 100] | 9.3 |
| CN(C)CCCN(CCCN(C)C)Cc1nc2ccccc2n1Cc1nc2ccccc2[nH]1 [compound 101] | ≥ 100 |
| N=C(N)NCc1nc2ccccc2n1Cc1nc2ccccc2[nH]1 [compound 104] | ≥ 100 |
| c1ccc2[nH]c(Cn3c(CNCCCn4ccnc4)nc4ccccc43)nc2c1 [compound 105] | 26 |
| CCCCCCCCN(CCCCCCCC)Cc1nc2ccccc2n1Cc1nc2ccccc2[nH]1 [compound 106] | 74 |
| CC(C)N(Cc1nc2ccccc2n1Cc1nc2ccccc2[nH]1)CC(O)c1ccc(O)c(O)c1 (stereo not shown) [compound 107] | ≥ 100 |
| COc1ccc(N(C)Cc2nc3ccccc3n2Cc2nc3ccccc3[nH]2)cc1 [compound 110] | ≥ 100 |
| CN(Cc1nc2ccccc2n1Cc1nc2ccccc2[nH]1)C(c1ccccc1)c1ccccc1 [compound 111] | ≥ 100 |
| CN1CCN(CCCNCc2nc3ccccc3n2Cc2nc3ccccc3[nH]2)CC1 [compound 112] | ≥ 100 |
| c1cncc(CNCc2nc3ccccc3n2Cc2nc3ccccc3[nH]2)c1 [compound 113] | ≥ 100 |
| Fc1ccc(F)c(CNCc2nc3ccccc3n2Cc2nc3ccccc3[nH]2)c1 [compound 114] | ≥ 100 |
| FC(F)(F)Oc1ccc(CNCc2nc3ccccc3n2Cc2nc3ccccc3[nH]2)cc1 [compound 115] | ≥ 100 |
| COCCCNCc1nc2ccccc2n1Cc1nc2ccccc2[nH]1 [compound 116] | ≥ 100 |
| OCCNCc1nc2ccccc2n1Cc1nc2ccccc2[nH]1 [compound 117] | ≥ 100 |
| c1ccc2[nH]c(Cn3c(CNC4CC5CCC4C5)nc4ccccc43)nc2c1 (stereo not shown) [compound 119] | ≥ 100 |
| COc1ccc(CCNCc2nc3ccccc3n2Cc2nc3ccccc3[nH]2)cc1 [compound 120] | ≥ 100 |
| COc1cc(CNCc2nc3ccccc3n2Cc2nc3ccccc3[nH]2)cc(OC)c1 [compound 122] | ≥ 100 |
| CCNCc1nc2ccccc2n1Cc1nc2ccccc2[nH]1 [compound 123] | ≥ 100 |
| c1ccc2[nH]c(Cn3c(CNCCCN4CCOCC4)nc4ccccc43)nc2c1 [compound 124] | ≥ 100 |
| c1ccc(CCNCc2nc3ccccc3n2Cc2nc3ccccc3[nH]2)nc1 [compound 125] | ≥ 100 |
| Fc1ccc(CNCc2nc3ccccc3n2Cc2nc3ccccc3[nH]2)cc1 [compound 126] | ≥ 100 |
| FC(F)(F)Oc1cccc(CNCc2nc3ccccc3n2Cc2nc3ccccc3[nH]2)c1 [compound 127] | ≥ 100 |

| SMILES | CC50 [µM] |
| --- | --- |
| CCCNCc1nc2ccccc2n1Cc1nc2ccccc2[nH]1 [compound 128] | ≥ 100 |
| CC(C)OCCCNCc1nc2ccccc2n1Cc1nc2ccccc2[nH]1 [compound 129] | ≥ 100 |
| c1ccc(C(CNCc2nc3ccccc3n2Cc2nc3ccccc3[nH]2)c2ccccc2)cc1 [compound 132] | ≥ 100 |
| COc1cccc(CCNCc2nc3ccccc3n2Cc2nc3ccccc3[nH]2)c1 [compound 135] | ≥ 100 |
| c1ccc2[nH]c(Cn3c(CNCCCn4ccnc4)nc4ccccc43)nc2c1 [compound 136] | ≥ 100 |
| c1ccc(CN2CCC(NCc3nc4ccccc4n3Cc3nc4ccccc4[nH]3)CC2)cc1 [compound 137] | 95 |
| Clc1ccc(CNCc2nc3ccccc3n2Cc2nc3ccccc3[nH]2)cc1Cl [compound 138] | 6.5 |
| FC(F)(F)c1ccccc1CNCc1nc2ccccc2n1Cc1nc2ccccc2[nH]1 [compound 139] | 18 |
| O=C1CCCN1CCCNCc1nc2ccccc2n1Cc1nc2ccccc2[nH]1 [compound 141] | 35 |
| c1csc(CNCc2nc3ccccc3n2Cc2nc3ccccc3[nH]2)c1 [compound 142] | ≥ 100 |
| COc1ccc(CNCc2nc3ccccc3n2Cc2nc3ccccc3[nH]2)cc1 [compound 146] | ≥ 100 |
| c1ccc2[nH]c(Cn3c(CNCCCN4CCCC4)nc4ccccc43)nc2c1 [compound 147] | ≥ 100 |
| CCN(CC)CCCC(C)NCc1nc2ccccc2n1Cc1nc2ccccc2[nH]1 (stereo not shown) [compound 148] | ≥ 100 |
| c1ccc(CN2CCC(NCc3nc4ccccc4n3Cc3nc4ccccc4[nH]3)C2)cc1 (stereo not shown) [compound 149] | 39 |
| Clc1ccccc1CNCc1nc2ccccc2n1Cc1nc2ccccc2[nH]1 [compound 150] | ≥ 100 |
| FC(F)(F)c1ccc(CNCc2nc3ccccc3n2Cc2nc3ccccc3[nH]2)cc1 [compound 151] | ≥ 100 |
| CC(C)NCc1nc2ccccc2n1Cc1nc2ccccc2[nH]1 [compound 152] | ≥ 100 |
| c1coc(CNCc2nc3ccccc3n2Cc2nc3ccccc3[nH]2)c1 [compound 154] | ≥ 100 |
| Clc1cccc(CNCc2nc3ccccc3n2Cc2nc3ccccc3[nH]2)c1 [compound 157] | ≥ 100 |
| O=C1CCCN1CCCNCc1nc2ccccc2n1Cc1nc2ccccc2[nH]1 [compound 158] | ≥ 100 |
| CCOCCCNCc1nc2ccccc2n1Cc1nc2ccccc2[nH]1 [compound 159] | ≥ 100 |
| CC1CCCCN1CCCNCc1nc2ccccc2n1Cc1nc2ccccc2[nH]1 (stereo not shown) [compound 160] | 88 |
